Data taken from patent US10189841B2, “Purinones as ubiquitin-specific protease 1 inhibitors” (Forma Therapeutics, Inc., priority 2015, dated 2019).

biological target: USP1 (construct USP1 (I-785, GG670, 671AA)/UAF1 (I-677)-Flag) (Homo sapiens (Human), UniProt O94782, G670A/G671A); assay: Ubiquitin-Rhodamine 110 assay for USP1 activity; type: biochemical; details: USP1/UAF1 25 pM, Ub-Rh110 25 nM, 30 min preincubation
Method in brief: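 Ub-Rh110 (25 nM, ≪Km) cleavage read at ex 485/em 535 in Tris pH 8.0, CaCl2, GSH, Prionex, Triton X-100. The screen used 10 µM compound, 100 pM USP1/UAF1 and 45 min at RT.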

USP1 (construct USP1 (I-785, GG670, 671AA)/UAF1 (I-677)-Flag), sequence (O94782 whole entry G670A/G671A): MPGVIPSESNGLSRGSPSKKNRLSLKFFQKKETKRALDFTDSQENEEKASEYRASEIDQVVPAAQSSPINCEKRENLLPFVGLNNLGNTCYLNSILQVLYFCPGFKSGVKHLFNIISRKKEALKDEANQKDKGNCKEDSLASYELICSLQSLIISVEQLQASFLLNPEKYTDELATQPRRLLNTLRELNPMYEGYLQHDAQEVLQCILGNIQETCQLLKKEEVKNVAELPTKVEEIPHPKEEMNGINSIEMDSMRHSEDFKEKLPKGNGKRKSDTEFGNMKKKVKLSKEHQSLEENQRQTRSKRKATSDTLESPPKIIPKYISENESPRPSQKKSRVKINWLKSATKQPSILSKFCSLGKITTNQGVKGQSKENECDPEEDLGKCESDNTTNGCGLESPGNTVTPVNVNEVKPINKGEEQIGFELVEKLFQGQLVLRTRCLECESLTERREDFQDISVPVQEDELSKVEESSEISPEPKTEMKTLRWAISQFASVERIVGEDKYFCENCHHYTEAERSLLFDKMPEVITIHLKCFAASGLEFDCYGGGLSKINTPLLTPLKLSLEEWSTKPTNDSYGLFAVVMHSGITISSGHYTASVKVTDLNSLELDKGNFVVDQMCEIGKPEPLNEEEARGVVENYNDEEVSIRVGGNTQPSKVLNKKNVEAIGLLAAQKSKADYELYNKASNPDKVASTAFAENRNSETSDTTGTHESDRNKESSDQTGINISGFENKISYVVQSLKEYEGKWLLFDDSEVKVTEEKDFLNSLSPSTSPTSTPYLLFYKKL
USP1 (construct USP1 (I-785, GG670, 671AA)/UAF1 (I-677)-Flag), sequence (Q8TAF3 whole entry partner): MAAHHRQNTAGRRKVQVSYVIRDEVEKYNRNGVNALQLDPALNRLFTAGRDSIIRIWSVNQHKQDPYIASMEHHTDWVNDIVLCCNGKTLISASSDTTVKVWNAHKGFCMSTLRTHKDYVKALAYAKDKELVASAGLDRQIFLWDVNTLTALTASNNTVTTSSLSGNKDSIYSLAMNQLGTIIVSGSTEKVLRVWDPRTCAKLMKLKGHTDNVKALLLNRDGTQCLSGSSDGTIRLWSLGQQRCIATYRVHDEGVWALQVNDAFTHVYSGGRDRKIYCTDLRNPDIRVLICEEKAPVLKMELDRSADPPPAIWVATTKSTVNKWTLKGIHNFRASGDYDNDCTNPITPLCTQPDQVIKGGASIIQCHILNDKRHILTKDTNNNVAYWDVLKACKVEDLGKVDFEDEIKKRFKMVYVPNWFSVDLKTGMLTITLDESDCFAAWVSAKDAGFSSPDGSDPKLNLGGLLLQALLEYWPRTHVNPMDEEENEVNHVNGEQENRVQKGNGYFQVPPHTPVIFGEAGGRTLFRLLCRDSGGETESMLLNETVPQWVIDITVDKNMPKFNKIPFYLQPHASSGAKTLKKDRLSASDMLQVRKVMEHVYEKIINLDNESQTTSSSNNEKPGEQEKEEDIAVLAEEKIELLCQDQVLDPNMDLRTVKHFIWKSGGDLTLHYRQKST

Compound | IC50
CC(C)c1ncccc1-c1ncc2c(n1)n([C@H](C)c1ccc(-c3nc(C(F)(F)F)cn3C)cc1)c(=O)n2C [Compound I-115, (R)-2-(2-isopropylpyridin-3-yl)-7-methyl-9-(1-(4-(1-methyl-4-(trifluoromethyl)-1H-imidazol-2-yl)phenyl)ethyl)-7,9-dihydro-8H-purin-8-one] | < 50 nM
CC(C)c1ncccc1-c1ncc2c(n1)n([C@@H](C)c1ccc(-c3nc(C(F)(F)F)cn3C)cc1)c(=O)n2C [Compound I-116, (S)-2-(2-isopropylpyridin-3-yl)-7-methyl-9-(1-(4-(1-methyl-4-(trifluoromethyl)-1H-imidazol-2-yl)phenyl)ethyl)-7,9-dihydro-8H-purin-8-one] | < 50 nM
CC(C)c1ncccc1-c1ncc2c(n1)n(Cc1ccc(-n3nc(C(F)(F)F)cc3N3CCOCC3)cc1)c(=O)n2C [Compound I-117, 2-(2-isopropylpyridin-3-yl)-7-methyl-9-(4-(5-morpholino-3-(trifluoromethyl)-1H-pyrazol-1-yl)benzyl)-7,9-dihydro-8H-purin-8-one] | < 50 nM
COc1cc(C)n(-c2ccc(Cn3c(=O)n(C)c4cnc(-c5cccnc5C(C)C)nc43)cc2)n1 [Compound I-118, 2-(2-isopropylpyridin-3-yl)-9-(4-(3-methoxy-5-methyl-1H-pyrazol-1-yl)benzyl)-7-methyl-7,9-dihydro-8H-purin-8-one] | < 50 nM
CC(C)c1ncccc1-c1ncc2c(n1)n(Cc1ccc(-c3nc(C(F)(F)F)cn3C)cc1)c(=O)n2C1COC1 [Compound I-119, 2-(2-isopropylpyridin-3-yl)-9-(4-(1-methyl-4-(trifluoromethyl)-1H-imidazol-2-yl)benzyl)-7-(oxetan-3-yl)-7,9-dihydro-8H-purin-8-one] | 50 to 200 nM
COCCn1c(=O)n(Cc2ccc(-c3nc(C(F)(F)F)cn3C)cc2)c2nc(-c3cccnc3C(C)C)ncc21 [Compound I-120, 2-(2-isopropylpyridin-3-yl)-7-(2-methoxyethyl)-9-(4-(1-methyl-4-(trifluoromethyl)-1H-imidazol-2-yl)benzyl)-7,9-dihydro-8H-purin-8-one] | < 50 nM
CC(C)c1ncccc1-c1ncc2c(n1)n(Cc1ccc(-c3nc(C(F)(F)F)cn3C)cc1)c(=O)n2C1CS(=O)(=O)C1 [Compound I-121, 7-(1,1-dioxidothietan-3-yl)-2-(2-isopropylpyridin-3-yl)-9-(4-(1-methyl-4-(trifluoromethyl)-1H-imidazol-2-yl)benzyl)-7,9-dihydro-8H-purin-8-one] | 200 to 2000 nM
CC(C)c1ncccc1-c1ncc2c(n1)n(Cc1ccc(-c3nc(C(F)(F)F)cn3C)cc1)c(=O)n2C1CCOCC1 [Compound I-122, 2-(2-isopropylpyridin-3-yl)-9-(4-(1-methyl-4-(trifluoromethyl)-1H-imidazol-2-yl)benzyl)-7-(tetrahydro-2H-pyran-4-yl)-7,9-dihydro-8H-purin-8-one] | 200 to 2000 nM
CC(C)c1ncccc1-c1ncc2c(n1)n(Cc1ccc(-c3nc(C(F)(F)F)cn3C)cc1)c(=O)n2CCO [Compound I-123, 7-(2-hydroxyethyl)-2-(2-isopropylpyridin-3-yl)-9-(4-(1-methyl-4-(trifluoromethyl)-1H-imidazol-2-yl)benzyl)-7,9-dihydro-8H-purin-8-one] | 50 to 200 nM
CC(C)c1ncccc1-c1ncc2c(n1)n(Cc1ccc(-c3nc(C(F)(F)F)cn3C3COC3)cc1)c(=O)n2C [Compound I-124, 2-(2-isopropylpyridin-3-yl)-7-methyl-9-(4-(1-(oxetan-3-yl)-4-(trifluoromethyl)-1H-imidazol-2-yl)benzyl)-7,9-dihydro-8H-purin-8-one] | 50 to 200 nM
CC(C)c1ncccc1-c1ncc2c(n1)n(Cc1cc(F)c(-c3nc(C(F)(F)F)cn3C)c(F)c1)c(=O)n2C [Compound I-125, 9-(3,5-difluoro-4-(1-methyl-4-(trifluoromethyl)-1H-imidazol-2-yl)benzyl)-2-(2-isopropylpyridin-3-yl)-7-methyl-7,9-dihydro-8H-purin-8-one] | 50 to 200 nM
CC(C)c1ncccc1-c1ncc2c(n1)n(Cc1ccc(-c3nc(C(F)(F)F)cn3C)c(F)c1)c(=O)n2C [Compound I-126, 9-(3-fluoro-4-(1-methyl-4-(trifluoromethyl)-1H-imidazol-2-yl)benzyl)-2-(2-isopropylpyridin-3-yl)-7-methyl-7,9-dihydro-8H-purin-8-one] | < 50 nM
CC(C)c1ncccc1-c1ncc2c(n1)n(Cc1ccc(-c3nc(C(F)(F)F)cn3C)cc1F)c(=O)n2C [Compound I-127, 9-(2-fluoro-4-(1-methyl-4-(trifluoromethyl)-1H-imidazol-2-yl)benzyl)-2-(2-isopropylpyridin-3-yl)-7-methyl-7,9-dihydro-8H-purin-8-one] | 50 to 200 nM
CC(C)c1ncccc1-c1ncc2c(n1)n(Cc1c(F)cc(-c3nc(C(F)(F)F)cn3C)cc1F)c(=O)n2C [Compound I-128, 9-(2,6-difluoro-4-(1-methyl-4-(trifluoromethyl)-1H-imidazol-2-yl)benzyl)-2-(2-isopropylpyridin-3-yl)-7-methyl-7,9-dihydro-8H-purin-8-one] | 50 to 200 nM
[2H]C([2H])([2H])n1c(=O)n(Cc2ccc(-c3nc(C(F)(F)F)cn3C)cc2)c2nc(-c3cccnc3C(C)C)ncc21 [Compound I-129, 2-(2-isopropylpyridin-3-yl)-7-(methyl-d3)-9-(4-(1-methyl-4-(trifluoromethyl)-1H-imidazol-2-yl)benzyl)-7,9-dihydro-8H-purin-8-one] | < 50 nM
[2H]C([2H])([2H])n1cc(C(F)(F)F)nc1-c1ccc(Cn2c(=O)n(C([2H])([2H])[2H])c3cnc(-c4cccnc4C(C)C)nc32)cc1 [Compound I-130, 2-(2-isopropylpyridin-3-yl)-7-(methyl-d3)-9-(4-(1-(methyl-d3)-4-(trifluoromethyl)-1H-imidazol-2-yl)benzyl)-7,9-dihydro-8H-purin-8-one] | < 50 nM
[2H]C([2H])([2H])n1cc(C(F)(F)F)nc1-c1ccc(Cn2c(=O)n(C)c3cnc(-c4cccnc4C(C)C)nc32)cc1 [Compound I-131, 2-(2-isopropylpyridin-3-yl)-7-methyl-9-(4-(1-(methyl-d3)-4-(trifluoromethyl)-1H-imidazol-2-yl)benzyl)-7,9-dihydro-8H-purin-8-one] | < 50 nM
Cn1cc(C(F)(F)F)nc1-c1ccc(Cn2c(=O)n(C)c3cnc(-c4ccccc4C(C)(C)O)nc32)cc1 [Compound I-132, 2-(2-(2-hydroxypropan-2-yl)phenyl)-7-methyl-9-(4-(1-methyl-4-(trifluoromethyl)-1H-imidazol-2-yl)benzyl)-7,9-dihydro-8H-purin-8-one] | < 50 nM
Cn1cc(C(F)(F)F)nc1-c1ccc(Cn2c(=O)n(C)c3cnc(-c4cccnc4N4CCOCC4)nc32)cc1 [Compound I-133, 7-methyl-9-(4-(1-methyl-4-(trifluoromethyl)-1H-imidazol-2-yl)benzyl)-2-(2-morpholinopyridin-3-yl)-7,9-dihydro-8H-purin-8-one] | 200 to 2000 nM
Cn1cc(C(F)(F)F)nc1-c1ccc(Cn2c(=O)n(C)c3cnc(-c4cccnc4N4CC(F)C4)nc32)cc1 [Compound I-134, 2-(2-(3-fluoroazetidin-1-yl)pyridin-3-yl)-7-methyl-9-(4-(1-methyl-4-(trifluoromethyl)-1H-imidazol-2-yl)benzyl)-7,9-dihydro-8H-purin-8-one] | 50 to 200 nM
